Data on 20 compounds can be found in patent US11066369B2, “N-(pyridin-2-yl)pyridine-sulfonamide derivatives and their use in the treatment of disease” (Novartis AG, priority 2016, dated 2021).

SMILES strings stand for the structures.

Assay [1] addresses T1, delF508-CFTR (Homo sapiens, UniProt P13569, DEL508-508).
T1 construct: functional activity of the CFTR channel (Chloride ion transport) in patient derived primary human bronchial epithelial cells; host or cells: patient-derived primary human bronchial epithelial cells (delF508-CFTR)
The assay is described as follows: Measurement of delF508-CFTR functional activity in primary human bronchial epithelial cells (HBECs) using Multi-Transepithelial Clamp Circuit (MTECC-24) assay. It counts as cell-based. Conditions: primary CF HBECs; for MTECC24 CFHBEC- Amax %: test compound added 24h before assay plus potentiator, relative to reference combination (2 μM corrector + 0.5 μM potentiator); for EC50: test compound added 24h before assay, in the presence of potentiator, mean of at least two replicates, read-out: MTECC24 CFHBEC- EC50. In short, it runs like this:
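Patient-derived primary delF508-CFTR HBECs, differentiated at air-liquid interface ~2 weeks, treated basolaterally with compound for 24 h, then apical and basolateral compound in HEPES pH 7.4 assay medium. Equivalent short-circuit current (Ieq) recorded on MTECC-24 with sequential amiloride, forskolin, potentiator and INH-172; normalized to 0.1% DMSO, EC50 from curve fit.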

Assay [2] concerns the target T2, horseradish peroxidase (HRP) tagged delF508-CFTR (Homo sapiens, UniProt P13569, DEL508-508).
T2 construct: expressed in transfected cells
The assay is described as follows: Measurement of delF508-CFTR-HRP surface expression in CFBE41o- cells.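 On DelF508-CFTR-HRP Amax %: percent efficacy relative to reference corrector lumacaftor.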 The assay is classed as cell-based. Conditions: delF508-CFTR-HRP surface expression, CFBE41o- cells; for Emax: read-out: DelF508-CFTR-HRP Amax %; for EC50: read-out: DelF508-CFTR-HRP EC50. In outline:
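CFBE41o- bronchial epithelial cells stably expressing delF508-CFTR with HRP in the fourth extracellular loop; expression induced 48h with 500 ng/mL doxycycline, then compounds added (top 10 μM, 10-point 3-fold series, ≤0.5% DMSO) for 24h at 37° C. Surface HRP measured by luminescence with cell-impermeant substrate; EC50 from logistic fit of triplicates, plate-normalized to lowest concentration; efficacy also relative to a reference corrector.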

T2 sequence (P13569 with tags, fused parts or gaps DEL508-508): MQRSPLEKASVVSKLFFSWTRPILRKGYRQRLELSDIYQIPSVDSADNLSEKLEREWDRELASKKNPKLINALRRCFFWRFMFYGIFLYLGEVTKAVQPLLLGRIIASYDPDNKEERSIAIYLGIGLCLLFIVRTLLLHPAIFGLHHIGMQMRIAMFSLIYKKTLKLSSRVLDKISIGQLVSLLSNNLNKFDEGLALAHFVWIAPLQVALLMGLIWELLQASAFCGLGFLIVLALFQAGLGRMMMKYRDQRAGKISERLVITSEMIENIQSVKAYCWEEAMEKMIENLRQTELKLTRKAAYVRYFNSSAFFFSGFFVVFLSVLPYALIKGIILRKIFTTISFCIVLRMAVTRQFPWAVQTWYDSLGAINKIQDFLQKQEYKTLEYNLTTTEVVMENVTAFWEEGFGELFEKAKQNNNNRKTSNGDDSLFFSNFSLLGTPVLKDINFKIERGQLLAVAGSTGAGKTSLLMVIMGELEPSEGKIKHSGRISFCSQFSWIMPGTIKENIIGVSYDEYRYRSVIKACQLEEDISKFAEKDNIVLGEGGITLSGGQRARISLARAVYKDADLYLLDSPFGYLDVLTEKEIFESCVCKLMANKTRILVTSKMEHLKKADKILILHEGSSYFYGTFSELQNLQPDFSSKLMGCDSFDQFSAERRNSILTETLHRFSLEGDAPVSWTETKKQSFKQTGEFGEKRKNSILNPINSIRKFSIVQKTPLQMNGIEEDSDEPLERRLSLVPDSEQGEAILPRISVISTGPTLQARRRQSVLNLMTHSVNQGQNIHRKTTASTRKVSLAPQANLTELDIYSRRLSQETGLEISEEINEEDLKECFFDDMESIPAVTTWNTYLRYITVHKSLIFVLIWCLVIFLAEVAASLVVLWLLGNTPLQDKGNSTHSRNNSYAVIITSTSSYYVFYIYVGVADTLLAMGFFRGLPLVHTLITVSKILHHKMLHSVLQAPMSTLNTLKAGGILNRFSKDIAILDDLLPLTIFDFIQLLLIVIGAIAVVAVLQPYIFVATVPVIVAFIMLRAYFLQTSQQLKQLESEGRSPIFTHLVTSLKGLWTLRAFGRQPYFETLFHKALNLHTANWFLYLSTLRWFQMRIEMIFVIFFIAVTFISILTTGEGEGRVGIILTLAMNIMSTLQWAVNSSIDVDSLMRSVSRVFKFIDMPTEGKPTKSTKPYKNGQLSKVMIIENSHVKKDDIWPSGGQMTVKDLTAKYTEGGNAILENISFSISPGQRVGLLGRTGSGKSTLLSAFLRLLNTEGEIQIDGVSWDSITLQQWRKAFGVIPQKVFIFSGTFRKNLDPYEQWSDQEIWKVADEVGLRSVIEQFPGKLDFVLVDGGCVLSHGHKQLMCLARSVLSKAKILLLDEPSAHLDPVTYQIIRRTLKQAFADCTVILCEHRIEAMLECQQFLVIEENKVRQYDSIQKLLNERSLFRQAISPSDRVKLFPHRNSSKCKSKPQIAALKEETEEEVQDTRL
T1 sequence (P13569 with tags, fused parts or gaps DEL508-508): as above

`Cc1ccc(F)cc1-c1nc(NS(=O)(=O)c2cccc(N3CCC(C(=O)O)C3)n2)ccc1C(F)(F)F` (stereo not shown) [Example 300, 1-(6-(N-(6-(5-fluoro-2-methylphenyl)-5-(trifluoromethyl)pyridin-2-yl)sulfamoyl)pyridin-2-yl) pyrrolidine-3-carboxylic Acid]: in assay [1], the “MTECC24 CFHBEC- Amax %” value is 43.5% and the EC50 (commonly the concentration that produces a half-maximal response) came to 12.8 nM. Further, in assay [2], the Emax came to 626% and the EC50 was 3270 nM.
For `Cc1ccccc1-c1nc(NS(=O)(=O)c2cccc(N3CCNC4(CC4)C3)n2)ccc1C(F)(F)F` [Example 302, 6-(4,7-diazaspiro[2.5]octan-7-yl)-N-(6-(o-tolyl)-5-(trifluoromethyl)pyridin-2-yl)pyridine-2-sulfonamide], in assay [1], the “MTECC24 CFHBEC- Amax %” value came to 74.4% and the EC50 was determined as 18.3 nM. Moreover, in assay [2], the Emax was found to be 530% and the EC50 is 2320 nM.
The like results for `Cc1ccccc1-c1nc(NS(=O)(=O)c2cccc(N3CC4(C3)OCCC4N)n2)ccc1C(F)(F)F` (stereo not shown) [Example 303, 6-(8-amino-5-oxa-2-azaspiro[3.4]octan-2-yl)-N-(6-(o-tolyl)-5-(trifluoromethyl)pyridin-2-yl)pyridine-2-sulfonamide] were, in that order, 65.5%, 71.7 nM, 491% and 3170 nM.
On to `Cc1ccccc1-c1nc(NS(=O)(=O)c2cccc(N3CCC4(CCC[C@H]4N)CC3)n2)ccc1C(F)(F)F` [Example 304, (R)-6-(1-amino-8-azaspiro[4.5]decan-8-yl)-N-(6-(o-tolyl)-5-(trifluoromethyl)pyridin-2-yl)pyridine-2-sulfonamide], for which, in assay [1], the “MTECC24 CFHBEC- Amax %” value was 63.4% and the EC50 stood at 8.5 nM. In assay [2], the Emax turned out to be 421% and the EC50 was 3920 nM.
The like results for `Cc1ccc(C#N)cc1-c1nc(NS(=O)(=O)c2cccc(N3CC(C)(O)C3)n2)ccc1Cl` [Example 305, N-(5-chloro-6-(5-cyano-2-methylphenyl)pyridin-2-yl)-6-(3-hydroxy-3-methylazetidin-1-yl)pyridine-2-sulfonamide] were, in that order, 81.3%, 44.3 nM, 312% and 2630 nM.
The like results for `Cc1ccccc1-c1nc(NS(=O)(=O)c2cccc(N3CCC4(CC[C@@H]4N)CC3)n2)ccc1C(F)(F)F` [Example 306, (S)-6-(1-amino-7-azaspiro[3.5]nonan-7-yl)-N-(6-(o-tolyl)-5-(trifluoromethyl)pyridin-2-yl)pyridine-2-sulfonamide] were, in that order, 88.1%, 31.5 nM, 418% and 3050 nM.
The matching figures for `Cc1ccccc1-c1nc(NS(=O)(=O)c2cccc(N3CCC4(CCC(CO)[C@H]4N)CC3)n2)ccc1C(F)(F)F` (stereo partly drawn) [Example 307, 6-((1R)-1-amino-2-(hydroxymethyl)-8-azaspiro[4.5]decan-8-yl)-N-(6-(o-tolyl)-5-(trifluoromethyl)pyridin-2-yl)pyridine-2-sulfonamide]: 61.5%, 45.8 nM, 259% and 3760 nM.
For `Cc1c(C#N)cccc1-c1nc(NS(=O)(=O)c2cccc(N3CC(C)(O)C3)n2)ccc1C(F)(F)F` [Example 308, N-(6-(3-cyano-2-methylphenyl)-5-(trifluoromethyl)pyridin-2-yl)-6-(3-hydroxy-3-methylazetidin-1-yl)pyridine-2-sulfonamide], in assay [1], the “MTECC24 CFHBEC- Amax %” value was found to be 60.7% and the half-maximal effective concentration (EC50) came to 207 nM. In assay [2], the Emax turned out to be 233% and the EC50 was 3750 nM.
The matching figures for `Cc1c(C#N)cccc1-c1nc(NS(=O)(=O)c2cccc(N3CC(C)(O)C3)n2)ccc1Cl` [Example 309, N-(5-chloro-6-(3-cyano-2-methylphenyl)pyridin-2-yl)-6-(3-hydroxy-3-methylazetidin-1-yl)pyridine-2-sulfonamide]: 75.6%, 210 nM, 194% and 3790 nM.
The matching figures for `Cc1ccc(C#N)cc1-c1nc(NS(=O)(=O)c2cccc(N3CCNCC3)n2)ccc1C(F)(F)F` [Example 311, N-(6-(5-cyano-2-methylphenyl)-5-(trifluoromethyl)pyridin-2-yl)-6-(piperazin-1-yl)pyridine-2-sulfonamide]: 61.7%, 220 nM, 179% and 3270 nM.
The matching figures for `Cc1ccc(C#N)cc1-c1nc(NS(=O)(=O)c2cccc(N3CCNCC3)n2)ccc1Cl` [Example 312, N-(5-chloro-6-(5-cyano-2-methylphenyl)pyridin-2-yl)-6-(piperazin-1-yl)pyridine-2-sulfonamide]: 49.8%, 458 nM, 167% and 3970 nM.
With `Cc1ccccc1-c1nc(NS(=O)(=O)c2cccc(N3CC[C@H](O)[C@H]3C)n2)ccc1C(F)(F)F` [Example 314, 6-((2R,3S)-3-hydroxy-2-methylpyrrolidin-1-yl)-N-(6-(o-tolyl)-5-(trifluoromethyl)pyridin-2-yl)pyridine-2-sulfonamide], in assay [1], the “MTECC24 CFHBEC- Amax %” value turned out to be 96.4% and the EC50 is 10 nM. Besides, the EC50 in assay [2] was found to be 1590 nM.
With `Cc1ccc(F)cc1-c1nc(NS(=O)(=O)c2cccc(N3CCC(O)C3C(=O)O)n2)ccc1C(F)(F)F` (stereo not shown) [Example 315, 1-(6-(N-(6-(5-fluoro-2-methylphenyl)-5-(trifluoromethyl)pyridin-2-yl)sulfamoyl)pyridin-2-yl)-3-hydroxypyrrolidine-2-carboxylic Acid], in assay [1], the “MTECC24 CFHBEC- Amax %” value was 60.9% and the EC50 was found to be 52 nM. In assay [2], the Emax came out at 269% and the EC50 was found to be 3290 nM.
For the compound `Cc1ccc(F)cc1-c1nc(NS(=O)(=O)c2ccnc(N3CCOC[C@H]3C)c2)ccc1Cl` [Example 318, (R)—N-(5-chloro-6-(5-fluoro-2-methylphenyl)pyridin-2-yl)-2-(3-methylmorpholino)pyridine-4-sulfonamide], in assay [1], the “MTECC24 CFHBEC- Amax %” value came to 48.7% and the EC50 came out at 77.6 nM. In assay [2], the Emax is 318% and the EC50 is 3170 nM.
Take `Cc1c(F)cccc1-c1nc(NS(=O)(=O)c2ccnc(N3CCOC[C@H]3C)c2)ccc1Cl` [Example 319, (R)—N-(5-chloro-6-(3-fluoro-2-methylphenyl)pyridin-2-yl)-2-(3-methylmorpholino)pyridine-4-sulfonamide]: in assay [1], the “MTECC24 CFHBEC- Amax %” value is recorded as 67.1% and the EC50 came out at 25 nM. In assay [2], the Emax turned out to be 195% and the EC50 amounted to 3480 nM.
For the compound `Cc1ccc(F)cc1-c1nc(NS(=O)(=O)c2ccnc(N3CC(C)(O)C3)c2)ccc1C(F)(F)F` [Example 320, N-(6-(5-fluoro-2-methylphenyl)-5-(trifluoromethyl)pyridin-2-yl)-2-(3-hydroxy-3-methylazetidin-1-yl)pyridine-4-sulfonamide], in assay [1], the “MTECC24 CFHBEC- Amax %” value was 74.2% and the EC50 was determined as 126 nM. For the same compound, in assay [2], the Emax turned out to be 545% and the half-maximal effective concentration (EC50) is 2220 nM.
For the compound `Cc1ccc(F)cc1-c1nc(NS(=O)(=O)c2ccnc(N3CCOC[C@H]3C)c2)ccc1C(F)(F)F` [Example 321, (R)—N-(6-(5-fluoro-2-methylphenyl)-5-(trifluoromethyl)pyridin-2-yl)-2-(3-methylmorpholino)pyridine-4-sulfonamide], in assay [1], the “MTECC24 CFHBEC- Amax %” value came to 49.1% and the EC50 was found to be 18.3 nM. In assay [2], the Emax stood at 413% and the EC50 turned out to be 1720 nM.
With `Cc1ccc(F)cc1-c1nc(NS(=O)(=O)c2ccnc(N3CC(O)C3)c2)ccc1Cl` [Example 322, N-(5-chloro-6-(5-fluoro-2-methylphenyl)pyridin-2-yl)-2-(3-hydroxyazetidin-1-yl)pyridine-4-sulfonamide], in assay [1], the “MTECC24 CFHBEC- Amax %” value is 52.6% and the EC50 is 222 nM. In assay [2], the Emax is 310% and the EC50 came out at 2610 nM.
The like results for `Cc1c(F)cccc1-c1nc(NS(=O)(=O)c2ccnc(N3CC(O)C3)c2)ccc1Cl` [Example 323, N-(5-chloro-6-(3-fluoro-2-methylphenyl)pyridin-2-yl)-2-(3-hydroxyazetidin-1-yl)pyridine-4-sulfonamide] were, in that order, 67.7%, 147 nM, 252% and 2770 nM.
The matching figures for `Cc1ccc(F)cc1-c1nc(NS(=O)(=O)c2ccnc(N3CC(O)C3)c2)ccc1C(F)(F)F` [Example 324, N-(6-(5-fluoro-2-methylphenyl)-5-(trifluoromethyl)pyridin-2-yl)-2-(3-hydroxyazetidin-1-yl)pyridine-4-sulfonamide]: 49.4%, 47.9 nM, 402% and 2640 nM.
